Reference: publication PMC4752462 (PLoS ONE, 2016)
Several values for one entry are separate records, joined by “and”; a condition that tells them apart may be missing. Equal entries are not always repeated.

How the values were obtained:
human liver microsomes [1] = assay: in vitro; assay type: in vitro ADME; settings: for EVG remaining: human, microsomes, 4 μM, pH 7.4
Experimental: (§1) The reaction was carried out using human liver microsomes in 0.1 M potassium phosphate buffer at pH 7.4 as described previously. […] After pre-incubation at 37°C for 10 minutes, 3 mM final concentration of NADPH was added to initiate the metabolic reaction. After 7 minutes incubation at 37°C the reactions were terminated by adding 1:3 volumes of cold acetonitrile. For the time kinetic study, the reaction was terminated at various time points (0.0, 2.5, 5, 10, 15, 20, 30, and 60 minutes). […] The Prior to LCMS/MS analysis the analyte was extracted from the microsomes by a protein precipitation method as described previously. The concentrations of all the drugs were quantified using Ab Sciex Analyst® software. Microsomal kinetic data were analyzed using Michaelis-Menten and exponential decay equations. CYP3A4 inhibition data were evaluated by fitting the values to dose-response inhibition and calculated IC50 values were reported. All graphs were plotted and two-tailed t-tests were performed wherever appropriate using GraphPad Prism 5.01 (GraphPad, San Diego, CA). Significant differences between more than two groups analyzed with one-way ANOVA followed by Dunnett's multiple comparison tests using IBM […] version 20. […] To study the influence of alcohol consumption on EVG metabolism, 20 mM ethanol (physiological concentration in moderate drinker) was used to treat human liver microsomes. […] EVG degradation/metabolism at 4 μM followed a pseudo-first-order kinetic. Therefore, we fit the data to an exponential one phase decay equation to determine the apparent half-life (t1/2) and rate constant K.

in vitro = in vitro ADME, human; settings: human, microsomes
Experimental: as §1

human liver microsomes [2] = assay: Substrate (saturation) kinetics of EVG metabolism in human liver microsomes; assay type: in vitro ADME
Experimental: (§2) The reaction was carried out using human liver microsomes in 0.1 M potassium phosphate buffer at pH 7.4 as described previously. […] After pre-incubation at 37°C for 10 minutes, 3 mM final concentration of NADPH was added to initiate the metabolic reaction. After 7 minutes incubation at 37°C the reactions were terminated by adding 1:3 volumes of cold acetonitrile. For the time kinetic study, the reaction was terminated at various time points (0.0, 2.5, 5, 10, 15, 20, 30, and 60 minutes). […] The Prior to LCMS/MS analysis the analyte was extracted from the microsomes by a protein precipitation method as described previously. The concentrations of all the drugs were quantified using Ab Sciex Analyst® software. Microsomal kinetic data were analyzed using Michaelis-Menten and exponential decay equations. CYP3A4 inhibition data were evaluated by fitting the values to dose-response inhibition and calculated IC50 values were reported. All graphs were plotted and two-tailed t-tests were performed wherever appropriate using GraphPad Prism 5.01 (GraphPad, San Diego, CA). Significant differences between more than two groups analyzed with one-way ANOVA followed by Dunnett's multiple comparison tests using IBM […] version 20.

[3] = as above; assay type: in vitro ADME; settings: human
Experimental: as §2

[4] = Sample stability of EVG in the microsomal matrix (bench-top, freeze-thaw, long-term storage); assay type: physicochemical
Experimental: Accuracy and precision of the method were determined by analyzing QC samples that cover the calibration curve range of the analyte. The low QC concentration was selected to be three times the LLOQ as per the FDA guidelines. Inter-day precision and accuracy were calculated by analyzing extracted calibration standards and three QCs at different concentrations as described in our previous publications. […] Carry-over (memory) effect was determined by assessing the extracted blank immediately after the upper limit of quantification (ULOQ, 1000 ng/ml). Matrix effect (ME), recovery efficiency (RE), and process efficiency (PE) were explored by following a previously proposed methodology. The three sets of samples used for the experiments were as follows: A, pure standard solutions of EVG; B, blank microsomal extraction spiked with pure standard solutions of EVG; C, microsomal samples spiked with pure standard solutions of EVG and extracted at the low, medium, and high QC concentrations. After quantitation of the analyte the parameters were calculated using the following formulae. ME (%) = B/A x 100, RE (%) = C/B x 100, PE (%) = C/A x 100. Furthermore, analyte peak areas were corrected with their respective IS peak areas and reported. Finally, sample stability studies for the EVG in the microsomal matrix was tested using low, medium, and high QCs at the bench-top (25°C) and storage conditions (-80°C). Analyte concentrations in these samples were measured after fresh preparation and at 12, 24, and 48 hours. […] For the long-term storage, samples were analyzed after storing them at the -80°C for three months. All determined concentrations were compared with freshly prepared QCs and reported the variation as a percentage of change from the freshly made QCs. The incurred sample reanalysis was also done by randomly selecting 10% of the total samples analyzed. The obtained data was compared with the first time results of the samples to determine whether the variability is beyond ± 20%.

CYP3A = tested on: CYP3A; design: method as in PMID 21348537; settings: read-out: IC50 for CYP3A inhibition; cited from earlier work
[5] = plasma pharmacokinetics; cited from earlier work
[6] = three values per group used for statistics

COc1cc2c(cc1Cc1cccc(Cl)c1F)c(=O)c(C(=O)O)cn2[C@H](CO)C(C)C [EVG, Elvitegravir]
Rate Constant 'K' (human liver microsomes [1]; With Ethanol, three values per group): 0.05
EVG remaining (human liver microsomes [1]; 0 h): 100 % of control
EVG remaining (human liver microsomes [1]; 2.5 min): 96.6 % of control
EVG remaining (human liver microsomes [1]; 5 min): 93.5 % of control
EVG remaining (human liver microsomes [1]; 10 min): 77.8 % of control
EVG remaining (human liver microsomes [1]; 0.25 h): 63.6 % of control
EVG remaining (human liver microsomes [1]; 20 min): 45.2 % of control
EVG remaining (human liver microsomes [1]; 0.5 h): 30.4 % of control
EVG remaining (human liver microsomes [1]; 1 h): 14.2 % of control
half-life at 4 μM (in vitro; pH 7.4, Half-life): 12.1 min
half-life at 4 μM (in vitro; pH 7.4, Half-life (minutes)): 17 ± 1 min
enzyme activity (Fig 4 data) (human liver microsomes [2]; EVG 4): 3.7 μmol/min/mg protein
enzyme activity (Fig 4 data) (human liver microsomes [2]; EVG 8): 7.7 μmol/min/mg protein
enzyme activity (Fig 4 data) (human liver microsomes [2]; EVG 20): 19.5 μmol/min/mg protein
enzyme activity (Fig 4 data) (human liver microsomes [2]; EVG 40): 38.6 μmol/min/mg protein
enzyme activity (Fig 4 data) (human liver microsomes [2]; EVG 60): 55.9 μmol/min/mg protein
enzyme activity (Fig 4 data) (human liver microsomes [2]; EVG 80): 68.9 μmol/min/mg protein
enzyme activity (Fig 4 data) (human liver microsomes [2]; EVG 100): 74.7 μmol/min/mg protein
enzyme activity (Fig 4 data) (human liver microsomes [2]; EVG 120): 71.9 μmol/min/mg protein
enzyme activity (Fig 4 data) (human liver microsomes [2]; EVG 160): 70.9 μmol/min/mg protein
enzyme activity (Fig 4 data) (human liver microsomes [2]; EVG 200): 84.3 μmol/min/mg protein
Vmax (human liver microsomes [2]; EVG alone): 162 ± 16 μmol/min/mg protein
Vmax (human liver microsomes [2]; in the presence of ethanol): 221 ± 18 μmol/min/mg protein
Km (human liver microsomes [2]; [6]): 65.2 µM and 68.7 µM
Vmax (human liver microsomes [2]; [6]): 162.1 and 157.8 and 158.3
Vmax (human liver microsomes [2]; when COBI is present): 308 ± 45 μmol/min/mg protein
Km at 7 min ([3]; pH 7.4, EVG 4-200 μM, COBI at same ratio, EtOH 20 mM): 68 ± 17 µM
Km at 7 min ([3]; pH 7.4, in the presence of ethanol): 115 ± 18 µM
Km at 7 min ([3]; pH 7.4, three values per group used for statistics): 68.3 µM
Km at 7 min ([3]; pH 7.4, when COBI is present): 189 ± 46 µM
long term storage stability ([4]; -80°C, 3-4 months, data not shown): did not exhibit significant loss in the concentration
change from freshly prepared quality controls ([4]; Freeze thaw (-80°C), cycle 1, High QC 3.50 μM): -3%
change from freshly prepared quality controls ([4]; Freeze thaw (-80°C), cycle 1, Low QC 0.040 μM): -12%
change from freshly prepared quality controls ([4]; Freeze thaw (-80°C), cycle 1, Medium QC 0.75 μM): 5%
change from freshly prepared quality controls ([4]; Freeze thaw (-80°C), cycle 2, High QC 3.50 μM): 3%
change from freshly prepared quality controls ([4]; Freeze thaw (-80°C), cycle 2, Low QC 0.040 μM): -7%
change from freshly prepared quality controls ([4]; Freeze thaw (-80°C), cycle 2, Medium QC 0.75 μM): 3%
change from freshly prepared quality controls ([4]; Freeze thaw (-80°C), cycle 3, High QC 3.50 μM): -15%
change from freshly prepared quality controls ([4]; Freeze thaw (-80°C), cycle 3, Low QC 0.040 μM): -3%
change from freshly prepared quality controls ([4]; Freeze thaw (-80°C), cycle 3, Medium QC 0.75 μM): 5%
change from freshly prepared quality controls ([4]; Room Temp (25°C), 0 hours, High QC 3.50 μM): 0%
change from freshly prepared quality controls ([4]; Room Temp (25°C), 0 hours, Low QC 0.040 μM): 0%
change from freshly prepared quality controls ([4]; Room Temp (25°C), 0 hours, Medium QC 0.75 μM): 0%
change from freshly prepared quality controls ([4]; Room Temp (25°C), 12 hours, High QC 3.50 μM): 0.1%
change from freshly prepared quality controls ([4]; Room Temp (25°C), 12 hours, Low QC 0.040 μM): -14%
change from freshly prepared quality controls ([4]; Room Temp (25°C), 12 hours, Medium QC 0.75 μM): 9%
change from freshly prepared quality controls ([4]; Room Temp (25°C), 24 hours, High QC 3.50 μM): 1.8%
change from freshly prepared quality controls ([4]; Room Temp (25°C), 24 hours, Low QC 0.040 μM): -10%
change from freshly prepared quality controls ([4]; Room Temp (25°C), 24 hours, Medium QC 0.75 μM): 4%
change from freshly prepared quality controls ([4]; Room Temp (25°C), 48 hours, High QC 3.50 μM): -0.4%
change from freshly prepared quality controls ([4]; Room Temp (25°C), 48 hours, Low QC 0.040 μM): -5%
change from freshly prepared quality controls ([4]; Room Temp (25°C), 48 hours, Medium QC 0.75 μM): 7%
stability at room temperature ([4]; microsomal matrix, over 48 hours): considered stable
percentage of variation in the freeze-thaw stability studies ([4]; up to 3-4 freeze-thaw cycles): less than 15%
IC50 (CYP3A): 63 µM
plasma half-life [5]: 120 to 180 min
